Where a SMILES comes first, the peptide text is derived from it. Bridges are numbered along the chain shown (N, C = ends). [ ]: non-standard residue; d: D form. The star is where a group is joined. Phe(4-COOH) = N[C@@H](Cc1ccc(C(=O)O)cc1)C(=O)O; Bip = N[C@@H](Cc1ccc(-c2ccccc2)cc1)C(=O)O; Phe(3-Me) = Cc1cccc(C[C@H](N)C(=O)O)c1; Cha = N[C@@H](CC1CCCCC1)C(=O)O; Carboxymethyl = O=C(O)C*; Orn = NCCC[C@H](N)C(=O)O; Dab = NCC[C@H](N)C(=O)O; Dap = NC[C@H](N)C(=O)O
Each compound was assayed against T1, human PD-1 / PD-L1-Ig binding on Jurkat cell line over-expressing human PD-1 (Jurkat-PD-1) (Homo sapiens, UniProt Q15116) (assay: Jurkat-PD-1 Cell Binding High-Content Screening Assay (CBA)). Details: Jurkat-PD-1 cells, PE-labeled PD-L1-Ig 20 nM final; read-out: Jurkat HPD1_PDL1 IC50.
T1 construct: expressed in transfected cells; host or cells: Jurkat
Assay type: cell-based
Summary of the method: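 Jurkat-hPD-1 cells in DMEM with 10% fetal calf serum receive test compound and are held at 37° C for 2 h. PE-labeled PD-L1-Ig is added at 20 nM final and left for 1 hour. Cells are then fixed and Hoechst-stained, and binding is measured by imaging.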

T1 sequence (Q15116 25-288): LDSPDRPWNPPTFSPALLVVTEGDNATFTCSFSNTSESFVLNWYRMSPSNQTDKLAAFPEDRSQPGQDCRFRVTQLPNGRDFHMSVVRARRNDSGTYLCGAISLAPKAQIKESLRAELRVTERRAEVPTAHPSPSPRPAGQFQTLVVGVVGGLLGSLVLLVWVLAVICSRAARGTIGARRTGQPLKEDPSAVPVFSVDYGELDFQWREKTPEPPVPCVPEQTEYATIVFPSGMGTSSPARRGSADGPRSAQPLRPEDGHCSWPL

In order of falling IC50:
1. CC(C)C[C@H]1NC(=O)[C@H](CCCN)NC(=O)[C@H](C(C)C)NC(=O)[C@H](Cc2ccc(-c3ccccc3)cc2)NC(=O)[C@H](C(C)C)NC(=O)[C@H](Cc2c[nH]c3ccccc23)NC(=O)[C@H](CC(=O)O)NC(=O)[C@H](Cc2ccc(OCC(=O)O)cc2)NC(=O)[C@H](CN)NC(=O)CSC[C@@H](C(=O)N[C@@H](C)C(N)=O)NC(=O)[C@H](Cc2cnc[nH]2)NC(=O)[C@H](C(C)C)NC(=O)[C@H](CC2CCCCC2)NC(=O)[C@H](CCN)NC1=O [Compound 1750] ({CH2CO}-[Dap]Y(Carboxymethyl)DWV[Bip]V[Orn][dL][Dab][Cha]VHCA-NH2; thioether N-14)  11.3 nM
2. CC(C)C[C@H]1NC(=O)[C@H](CCCN)NC(=O)[C@H](C(C)C)NC(=O)[C@H](Cc2ccc(-c3ccccc3)cc2)NC(=O)[C@H](C(C)C)NC(=O)[C@H](Cc2c[nH]c3ccccc23)NC(=O)[C@H](CC(=O)O)NC(=O)[C@H](Cc2ccc(OCC(=O)O)cc2)NC(=O)[C@H](Cc2ccc(OCC(=O)O)cc2)NC(=O)CSC[C@@H](C(=O)N[C@@H](C)C(N)=O)NC(=O)[C@H](CCCCN)NC(=O)[C@H](C(C)C)NC(=O)[C@H](CC2CCCCC2)NC(=O)[C@H](CCN)NC1=O [Compound 1746] ({CH2CO}-Y(Carboxymethyl)Y(Carboxymethyl)DWV[Bip]V[Orn][dL][Dab][Cha]VKCA-NH2; thioether N-14)  8.8 nM
3. Cc1cccc(C[C@@H]2NC(=O)[C@H](CC(=O)O)NC(=O)[C@H](Cc3ccc(OCC(=O)O)cc3)NC(=O)[C@H](CN)NC(=O)CSC[C@@H](C(=O)N[C@@H](C)C(N)=O)NC(=O)[C@H](CCCCN)NC(=O)[C@H](C(C)C)NC(=O)[C@H](CC3CCCCC3)NC(=O)[C@H](CCN)NC(=O)[C@@H](CC(C)C)NC(=O)[C@H](CCCN)NC(=O)[C@H](C(C)C)NC(=O)[C@H](Cc3ccc(-c4ccccc4)cc3)NC(=O)[C@H](C(C)C)NC2=O)c1 [Compound 1755] ({CH2CO}-[Dap]Y(Carboxymethyl)D[Phe(3-Me)]V[Bip]V[Orn][dL][Dab][Cha]VKCA-NH2; thioether N-14)  8.4 nM
4. CC(C)C[C@H]1NC(=O)[C@H](CCCN)NC(=O)[C@H](C(C)C)NC(=O)[C@H](Cc2ccc(-c3ccccc3)cc2)NC(=O)[C@H](C(C)C)NC(=O)[C@H](Cc2c[nH]c3ccccc23)NC(=O)[C@H](CC(=O)O)NC(=O)[C@H](Cc2ccc(C(=O)O)cc2)NC(=O)[C@H](Cc2ccc(OCC(=O)O)cc2)NC(=O)CSC[C@@H](C(=O)N[C@@H](C)C(N)=O)NC(=O)[C@H](Cc2cnc[nH]2)NC(=O)[C@H](C(C)C)NC(=O)[C@H](CC2CCCCC2)NC(=O)[C@H](CCN)NC1=O [Compound 1751] ({CH2CO}-Y(Carboxymethyl)[Phe(4-COOH)]DWV[Bip]V[Orn][dL][Dab][Cha]VHCA-NH2; thioether N-14)  7.8 nM
5. CC(C)C[C@H]1NC(=O)[C@H](CCCN)NC(=O)[C@H](C(C)C)NC(=O)[C@H](Cc2ccc(-c3ccccc3)cc2)NC(=O)[C@H](C(C)C)NC(=O)[C@H](Cc2c[nH]c3ccccc23)NC(=O)[C@H](CC(=O)O)NC(=O)[C@H](Cc2ccc(C(=O)O)cc2)NC(=O)[C@H](Cc2ccc(OCC(=O)O)cc2)NC(=O)CSC[C@@H](C(=O)N[C@@H](C)C(N)=O)NC(=O)[C@H](CCCNC(=N)N)NC(=O)[C@H](C(C)C)NC(=O)[C@H](CC2CCCCC2)NC(=O)[C@H](CCN)NC1=O [Compound 1748] ({CH2CO}-Y(Carboxymethyl)[Phe(4-COOH)]DWV[Bip]V[Orn][dL][Dab][Cha]VRCA-NH2; thioether N-14)  7.6 nM
6. CC(C)C[C@H]1NC(=O)[C@H](CCCN)NC(=O)[C@H](C(C)C)NC(=O)[C@H](Cc2ccc(-c3ccccc3)cc2)NC(=O)[C@H](C(C)C)NC(=O)[C@H](Cc2c[nH]c3ccccc23)NC(=O)[C@H](CC(=O)O)NC(=O)[C@H](Cc2ccc(OCC(=O)O)cc2)NC(=O)[C@H](Cc2ccc(OCC(=O)O)cc2)NC(=O)CSC[C@@H](C(=O)N[C@@H](C)C(N)=O)NC(=O)[C@H](Cc2cnc[nH]2)NC(=O)[C@H](C(C)C)NC(=O)[C@H](CC2CCCCC2)NC(=O)[C@H](CCN)NC1=O [Compound 1752] ({CH2CO}-Y(Carboxymethyl)Y(Carboxymethyl)DWV[Bip]V[Orn][dL][Dab][Cha]VHCA-NH2; thioether N-14)  6.7 nM
7. CC(C)C[C@H]1NC(=O)[C@H](CCCN)NC(=O)[C@H](C(C)C)NC(=O)[C@H](Cc2ccc(-c3ccccc3)cc2)NC(=O)[C@H](C(C)C)NC(=O)[C@H](Cc2c[nH]c3ccccc23)NC(=O)[C@H](CC(=O)O)NC(=O)[C@H](Cc2ccc(OCC(=O)O)cc2)NC(=O)[C@H](CN)NC(=O)CSC[C@@H](C(=O)N[C@@H](C)C(N)=O)NC(=O)[C@H](CCCNC(=N)N)NC(=O)[C@H](C(C)C)NC(=O)[C@H](CC2CCCCC2)NC(=O)[C@H](CCN)NC1=O [Compound 1747] ({CH2CO}-[Dap]Y(Carboxymethyl)DWV[Bip]V[Orn][dL][Dab][Cha]VRCA-NH2; thioether N-14)  6.4 nM
8. CC(C)C[C@H]1NC(=O)[C@H](CCCN)NC(=O)[C@H](C(C)C)NC(=O)[C@H](Cc2ccc(-c3ccccc3)cc2)NC(=O)[C@H](C(C)C)NC(=O)[C@H](Cc2c[nH]c3ccccc23)NC(=O)[C@H](CC(=O)O)NC(=O)[C@H](Cc2ccc(OCC(=O)O)cc2)NC(=O)[C@H](Cc2ccc(OCC(=O)O)cc2)NC(=O)CSC[C@@H](C(=O)N[C@@H](C)C(N)=O)NC(=O)[C@H](CCCN)NC(=O)[C@H](C(C)C)NC(=O)[C@H](CC2CCCCC2)NC(=O)[C@H](CCN)NC1=O [Compound 1743] ({CH2CO}-Y(Carboxymethyl)Y(Carboxymethyl)DWV[Bip]V[Orn][dL][Dab][Cha]V[Orn]CA-NH2; thioether N-14)  6 nM
9. Cc1cccc(C[C@@H]2NC(=O)[C@H](CC(=O)O)NC(=O)[C@H](Cc3ccc(OCC(=O)O)cc3)NC(=O)[C@H](CN)NC(=O)CSC[C@@H](C(=O)N[C@@H](C)C(N)=O)NC(=O)[C@H](CCCN)NC(=O)[C@H](C(C)C)NC(=O)[C@H](CC3CCCCC3)NC(=O)[C@H](CCN)NC(=O)[C@@H](CC(C)C)NC(=O)[C@H](CCCN)NC(=O)[C@H](C(C)C)NC(=O)[C@H](Cc3ccc(-c4ccccc4)cc3)NC(=O)[C@H](C(C)C)NC2=O)c1 [Compound 1754] ({CH2CO}-[Dap]Y(Carboxymethyl)D[Phe(3-Me)]V[Bip]V[Orn][dL][Dab][Cha]V[Orn]CA-NH2; thioether N-14)  5.5 nM
10. Cc1cccc(C[C@@H]2NC(=O)[C@H](CC(=O)O)NC(=O)[C@H](Cc3ccc(OCC(=O)O)cc3)NC(=O)[C@H](CN)NC(=O)CSC[C@@H](C(=O)N[C@@H](C)C(N)=O)NC(=O)[C@H](CCCNC(=N)N)NC(=O)[C@H](C(C)C)NC(=O)[C@H](CC3CCCCC3)NC(=O)[C@H](CCN)NC(=O)[C@@H](CC(C)C)NC(=O)[C@H](CCCN)NC(=O)[C@H](C(C)C)NC(=O)[C@H](Cc3ccc(-c4ccccc4)cc3)NC(=O)[C@H](C(C)C)NC2=O)c1 [Compound 1756] ({CH2CO}-[Dap]Y(Carboxymethyl)D[Phe(3-Me)]V[Bip]V[Orn][dL][Dab][Cha]VRCA-NH2; thioether N-14)  5.5 nM
11. Cc1cccc(C[C@@H]2NC(=O)[C@H](CC(=O)O)NC(=O)[C@H](Cc3ccc(OCC(=O)O)cc3)NC(=O)[C@H](CN)NC(=O)CSC[C@@H](C(=O)N[C@@H](C)C(N)=O)NC(=O)[C@H](CN)NC(=O)[C@H](C(C)C)NC(=O)[C@H](CC3CCCCC3)NC(=O)[C@H](CCN)NC(=O)[C@@H](CC(C)C)NC(=O)[C@H](CCCN)NC(=O)[C@H](C(C)C)NC(=O)[C@H](Cc3ccc(-c4ccccc4)cc3)NC(=O)[C@H](C(C)C)NC2=O)c1 [Compound 1753] ({CH2CO}-[Dap]Y(Carboxymethyl)D[Phe(3-Me)]V[Bip]V[Orn][dL][Dab][Cha]V[Dap]CA-NH2; thioether N-14)  5.1 nM
12. CC(C)C[C@H]1NC(=O)[C@H](CCCN)NC(=O)[C@H](C(C)C)NC(=O)[C@H](Cc2ccc(-c3ccccc3)cc2)NC(=O)[C@H](C(C)C)NC(=O)[C@H](Cc2c[nH]c3ccccc23)NC(=O)[C@H](CC(=O)O)NC(=O)[C@H](Cc2ccc(OCC(=O)O)cc2)NC(=O)[C@H](CN)NC(=O)CSC[C@@H](C(=O)N[C@@H](C)C(N)=O)NC(=O)[C@H](CCCCN)NC(=O)[C@H](C(C)C)NC(=O)[C@H](CC2CCCCC2)NC(=O)[C@H](CCN)NC1=O [Compound 1744] ({CH2CO}-[Dap]Y(Carboxymethyl)DWV[Bip]V[Orn][dL][Dab][Cha]VKCA-NH2; thioether N-14)  4.7 nM
13. CC(C)C[C@H]1NC(=O)[C@H](CCCN)NC(=O)[C@H](C(C)C)NC(=O)[C@H](Cc2ccc(-c3ccccc3)cc2)NC(=O)[C@H](C(C)C)NC(=O)[C@H](Cc2c[nH]c3ccccc23)NC(=O)[C@H](CC(=O)O)NC(=O)[C@H](Cc2ccc(OCC(=O)O)cc2)NC(=O)[C@H](Cc2ccc(OCC(=O)O)cc2)NC(=O)CSC[C@@H](C(=O)N[C@@H](C)C(N)=O)NC(=O)[C@H](CCCNC(=N)N)NC(=O)[C@H](C(C)C)NC(=O)[C@H](CC2CCCCC2)NC(=O)[C@H](CCN)NC1=O [Compound 1749] ({CH2CO}-Y(Carboxymethyl)Y(Carboxymethyl)DWV[Bip]V[Orn][dL][Dab][Cha]VRCA-NH2; thioether N-14)  4.2 nM
14. CC(C)C[C@H]1NC(=O)[C@H](CCCN)NC(=O)[C@H](C(C)C)NC(=O)[C@H](Cc2ccc(-c3ccccc3)cc2)NC(=O)[C@H](C(C)C)NC(=O)[C@H](Cc2c[nH]c3ccccc23)NC(=O)[C@H](CC(=O)O)NC(=O)[C@H](Cc2ccc(C(=O)O)cc2)NC(=O)[C@H](Cc2ccc(OCC(=O)O)cc2)NC(=O)CSC[C@@H](C(=O)N[C@@H](C)C(N)=O)NC(=O)[C@H](CCCCN)NC(=O)[C@H](C(C)C)NC(=O)[C@H](CC2CCCCC2)NC(=O)[C@H](CCN)NC1=O [Compound 1745] ({CH2CO}-Y(Carboxymethyl)[Phe(4-COOH)]DWV[Bip]V[Orn][dL][Dab][Cha]VKCA-NH2; thioether N-14)  4 nM

— patent US20250163104A1, “MACROCYCLIC IMMUNOMODULATORS” (priority 2021, published 2025)
